Source: ChEMBL document CHEMBL1124706, “Synthesis, antiretrovirus effects, and phosphorylation kinetics of 3'-isocyano-3'-deoxythymidine and 3'-isocyano-2',3'-dideoxyuridine” (1990)

Columns and labels:
Type in all cases: functional
MT4 [1] = assay: Cytopathogenicity against HIV-2 induced replication in MT-4 cells was determined; conditions: Homo sapiens, read-out: ED50 (the source's name)
MT4 [2] = assay: Cytotoxic dose to reduce the viability of MT-4 cells by 50 % was determined; conditions: Homo sapiens, read-out: CD50 (the source's name)
[3] = Ratio of CD50 value to that of ED50 value was determined and expressed as selectivity index
MT4 [4] = assay: Cytopathogenicity against HIV-1 induced, replication in MT-4 cells was determined; conditions: Homo sapiens, read-out: ED50 (the source's name)

Structure (SMILES) | EC50 (MT4 [1]) [nM] | CC50 (MT4 [2]) [nM] | Selectivity index [3] | EC50 (MT4 [4]) [nM]
[C-]#[N+]C1CC(n2cc(C)c(=O)[nH]c2=O)OC1CO (configuration not stated) | > 800 | 880 | < 1.1 | > 800
[C-]#[N+]C1CC(n2ccc(=O)[nH]c2=O)OC1CO (configuration not stated) | > 500000 | ≥ 500000 | < 1 | > 500000
Cc1cn([C@H]2C[C@H](N=[N+]=[N-])[C@@H](CO)O2)c(=O)[nH]c1=O [ZIDOVUDINE] | 4 | 6300 | 1580 | 4
